Assays:
human 5-HT4(h) receptor [1] = biological target: T1, human 5-HT4(h) receptor (Homo sapiens, UniProt Q13639); assay: Competition with […] [3H]GR113808 binding, membranes of transfected COS-7 cells; conditions: for pKi: Human 5-HT4 h receptor in Cos-7 cells, Cheng and Prusoff
human 5-HT4(b) receptor [2] = biological target: T2, human 5-HT4(b) receptor (Homo sapiens, UniProt Q13639); assay: as above; conditions: for pKi / Ki: Human 5-HT4 b receptor in Cos-7 cells, Cheng and Prusoff
T2 construct: expressed in transfected cells; host or cells: COS-7 cells, transient transfection with a pcDNA3 construct

human 5-HT4(a) receptor [3] = biological target: T3, human 5-HT4(a) receptor (Homo sapiens, UniProt Q13639); assay: as above; conditions: for pKi / Ki: Human 5-HT4 a receptor in Cos-7 cells, Cheng and Prusoff
T3 construct: expressed in transfected cells; host or cells: COS-7 cells, transient transfection with a pcDNA3 construct

human 5-HT4(b) receptor [4] = biological target: T2, human 5-HT4(b) receptor; assay: cAMP formation in transiently transfected COS-7 cells (flashplate assay); format: cell-based; conditions: 5-HT4 variant b, n = 8, cAMP formation
Protocol: (§1) Results represent the increase of cAMP after stimulation by agonist since basal level has been removed. […] The efficacy and potency of the different agonists to trigger the cellular response was estimated and compared for the three different variants.
(§2) These experiments were done using the NEN adenylyl cyclase activation flashplate assay, according to the supplier. Cells were removed from the Petri dishes with 3 ml EDTA (0.04% w/v) and resuspended with phosphate buffered saline without Ca^2+ and Mg^2+. The cells were centrifuged at 1500 g for 5 minutes and the supernatants were removed. The pellet was resuspend in stimulation buffer and diluted to a concentration of 10^6 cells/ml, 50 μl thereof were added per well of the flashplate (50000 cells/well). Compounds were diluted in PBS containing 1 mM pargyline and 1 mM paroxetine, and 50 μl of the resulting mixture was added per well, followed by an incubation for 20 minutes at 370° C. […] After incubation for 24 h at room temperature, counting was done in a Topcount (Packard).

human 5-HT4(a) receptor [5] = biological target: T3, human 5-HT4(a) receptor; assay: as above; format: cell-based; conditions: 5-HT4 variant a, n = 5, cAMP formation
Protocol: as §1, §2

[6] = tested on: COS-7 cells transfected with the empty vector; assay: cAMP assay, negative control cells; format: cell-based; conditions: stimulation with 10^−6 M of each agonist
Description: as §1, with “variants. […] No difference in the pEC50 was noticed. The cAMP assay has been performed also for COS-7 cells transfected with the empty vector as a negative control.” for “variants.”
These experiments were done using the NEN adenylyl cyclase activation flashplate assay, according to the supplier. Cells were removed from the Petri dishes with 3 ml EDTA (0.04% w/v) and resuspended with phosphate buffered saline without Ca^2+ and Mg^2+. The cells were centrifuged at 1500 g for 5 minutes and the supernatants were removed. The pellet was resuspend in stimulation buffer and diluted to a concentration of 10^6 cells/ml, 50 μl thereof were added per well of the flashplate (50000 cells/well). Compounds were diluted in PBS containing 1 mM pargyline and 1 mM paroxetine, and 50 μl of the resulting mixture was added per well, followed by an incubation for 20 minutes at […]. […] The experiment was stopped and a direct cAMP[^125I] detection assay was performed by adding 100 μl of detection mix per well. After incubation for 24 h at room temperature, counting was done in a Topcount (Packard).

human 5-HT4(h) receptor [7] = biological target: T1, human 5-HT4(h) receptor; assay: cAMP formation in transiently transfected COS-7 cells (flashplate assay); format: cell-based; set-up: expressed in transfected cells; host or cells: COS-7 cells, transient transfection with 5-HT4(h)/pcDNA3
Protocol: as §1, §2

h 5-HT4(h) = biological target: T4, h 5-HT4(h) (Homo sapiens, UniProt Q13639); assay: Radioligand saturation binding, membranes of transfected COS-7 cells; conditions: h variant, 3 independent transfections
T4 construct: expressed in transfected cells; host or cells: COS-7 cells, transient transfection with 5-HT4(h)/pcDNA3
Description: (§3) In order to compare the pharmacological properties of the 5-HT4(h) variant with those of the previously cloned 5-HT4(a) and b variant, the three corresponding pcDNA3 expression constructs were transiently transfected into COS cells. The receptors were investigated by radioligand binding assays on membrane preparations.

5-HT4(a) variant = biological target: T5, 5-HT4(a) variant (Homo sapiens, UniProt Q13639); assay: as above
T5 construct: expressed in transfected cells; host or cells: COS-7 cells, transient transfection with a pcDNA3 construct
Description: as §3

5-HT4(b) variant = biological target: T6, 5-HT4(b) variant (Homo sapiens, UniProt Q13639); assay: as above
T6 construct: expressed in transfected cells; host or cells: COS-7 cells, transient transfection with a pcDNA3 construct
Description: as §3

[8] = tested on: COS-7 cells transfected with the vector alone; assay: Radioligand binding, negative control cells; conditions: 3 independent transfections
Description: The same result was obtained for the Bmax values found for the high affinity sites of the 2 reference 5-HT receptor variants a and b. […] Results are the mean of three independent transfections.

[9] = 5-HT4 variant h, n = 3, cAMP formation

T3 sequence (Q13639 1-387 isoform Q13639-2): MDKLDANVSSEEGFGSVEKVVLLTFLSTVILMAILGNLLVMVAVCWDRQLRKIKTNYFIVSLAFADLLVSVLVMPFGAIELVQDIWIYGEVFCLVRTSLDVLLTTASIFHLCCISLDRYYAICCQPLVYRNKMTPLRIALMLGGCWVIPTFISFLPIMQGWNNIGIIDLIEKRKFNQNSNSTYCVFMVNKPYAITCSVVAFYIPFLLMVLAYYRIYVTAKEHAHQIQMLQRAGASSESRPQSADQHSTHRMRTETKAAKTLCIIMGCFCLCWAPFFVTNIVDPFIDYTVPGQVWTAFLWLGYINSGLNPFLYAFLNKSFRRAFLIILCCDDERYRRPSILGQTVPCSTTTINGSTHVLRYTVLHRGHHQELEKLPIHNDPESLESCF
T1 sequence (Q13639 1-402 isoform Q13639-6): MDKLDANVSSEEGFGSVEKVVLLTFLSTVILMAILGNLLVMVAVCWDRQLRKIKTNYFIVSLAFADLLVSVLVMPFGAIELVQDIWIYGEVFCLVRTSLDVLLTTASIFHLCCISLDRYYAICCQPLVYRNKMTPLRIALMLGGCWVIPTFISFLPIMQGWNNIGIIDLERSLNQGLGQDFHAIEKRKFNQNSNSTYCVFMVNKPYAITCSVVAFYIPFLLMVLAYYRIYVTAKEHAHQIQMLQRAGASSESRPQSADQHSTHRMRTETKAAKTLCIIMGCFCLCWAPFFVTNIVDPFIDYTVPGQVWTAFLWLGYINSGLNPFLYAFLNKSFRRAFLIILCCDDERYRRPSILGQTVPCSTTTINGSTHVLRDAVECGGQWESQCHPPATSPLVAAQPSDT
T2 sequence (Q13639 whole entry): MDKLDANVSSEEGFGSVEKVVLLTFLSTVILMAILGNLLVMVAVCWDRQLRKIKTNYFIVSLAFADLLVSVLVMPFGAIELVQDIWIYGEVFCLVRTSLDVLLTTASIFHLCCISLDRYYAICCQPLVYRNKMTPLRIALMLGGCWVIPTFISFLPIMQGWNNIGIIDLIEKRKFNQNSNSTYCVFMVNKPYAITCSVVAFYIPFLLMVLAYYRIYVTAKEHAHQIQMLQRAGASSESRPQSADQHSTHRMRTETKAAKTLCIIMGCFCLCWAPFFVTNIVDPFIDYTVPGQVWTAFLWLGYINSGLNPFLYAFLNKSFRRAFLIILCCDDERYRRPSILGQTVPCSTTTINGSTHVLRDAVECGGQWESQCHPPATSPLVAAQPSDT
T5 sequence (Q13639 1-387 isoform Q13639-2): as the sequence (Q13639 1-387 isoform Q13639-2) above
T4 sequence (Q13639 1-402 isoform Q13639-6): as the sequence (Q13639 1-402 isoform Q13639-6) above

| SMILES | pKi (human 5-HT4(h) receptor [1]) | pKi (human 5-HT4(b) receptor [2]) | pKi (human 5-HT4(a) receptor [3]) | % of 5HT max (+/− SD) (human 5-HT4(b) receptor [4]) | % of 5HT max (+/− SD) (human 5-HT4(a) receptor [5]) | increase of the cAMP basal level [6] | % of 5HT max (+/− SD) (human 5-HT4(h) receptor [7]; [9]) | other results |
| --- | --- | --- | --- | --- | --- | --- | --- | --- |
| COc1ccc2[nH]cc(CCN)c2c1 [5-MeOT] | 6.1 | 6.13 | 6.08 | – | – | – | – | – |
| NCCc1c[nH]c2ccc(O)cc12 [5HT, 5-hydroxytryptamine] | – | – | – | 100% | 100% | no significant increase | 100% | – |
| COc1cc(N)c(Cl)cc1C(=O)NC1CCN(CCCOc2ccc(F)cc2)CC1OC (stereo not drawn) [Cisapride] | – | – | – | – | – | no significant increase | – | – |
| Cn1cc(C(=O)OCC2CCN(CCNS(C)(=O)=O)CC2)c2ccccc21 [GR113808] | 9.29 | 9.57 | 9.54 | 0% | 0% | – | 54.6% | pEC50 (+/1 SD) (human 5-HT4(h) receptor [7]; [9]): 7.95; effect at the 5-HT4(h) variant (agonist/antagonist) (human 5-HT4(h) receptor [7]; in words): agonistic effect |
| CCOc1cc(N)c(Cl)cc1C(=O)NCC1CN(Cc2ccc(F)cc2)CCO1 (stereo not drawn) [Mosapride] | – | – | – | – | – | – | – | IC50 (human 5-HT4(h) receptor [1]): 282 nM; Ki (human 5-HT4(h) receptor [1]): 141 nM; IC50 (human 5-HT4(b) receptor [2]): 912 nM; Ki (human 5-HT4(b) receptor [2]): 661 nM; IC50 (human 5-HT4(a) receptor [3]): 331 nM; Ki (human 5-HT4(a) receptor [3]): 195 nM |
| COCCCN1CCC(NC(=O)c2cc(Cl)c(N)c3c2OCC3)CC1 [Prucalopride] | – | – | – | 117.36% | 118% | no significant increase | 95% | – |
| CCCCN1CCC(COC(=O)c2cc(Cl)c(N)c3c2OCCO3)CC1 [SB204070] | 10.38 | 10.04 | 10.15 | – | – | – | – | – |
| CCCCCNC(=N)N/N=C/c1c[nH]c2ccc(OC)cc12 [SDZ-HTF919] | – | – | – | – | – | – | – | IC50 (human 5-HT4(h) receptor [1]): 35.5 nM; Ki (human 5-HT4(h) receptor [1]): 25.7 nM; IC50 (human 5-HT4(b) receptor [2]): 12.9 nM; Ki (human 5-HT4(b) receptor [2]): 8.13 nM; IC50 (human 5-HT4(a) receptor [3]): 8.32 nM; Ki (human 5-HT4(a) receptor [3]): 13.8 nM |
| Cn1cc(C(=O)OCC2CCN(CCNS(C)(=O)=O)CC2)c2ccccc21 [[^3H]GR113808] | – | – | – | – | – | – | – | Kd (h 5-HT4(h)): 0.24 nM; Kd (5-HT4(a) variant): 0.14 nM; Kd (5-HT4(b) variant): 0.19 nM; specific binding [8]: no specific binding |
